The values below are quoted from earlier work in patent publication US20230076766A1, “METHOD FOR TREATMENT OF ROSACEA IN PATIENTS AGED 35-64 YEARS” (Sol-Gel Technologies Ltd., priority 2021, published 2023).

SMILES strings stand for the structures.

In the data set the test system is rosacea lesions. The following applies: BPO as the sole active agent.

Consider `O=C(OOC(=O)c1ccccc1)c1ccccc1` [BPO, Benzoyl peroxide], for which the “response of rosacea lesions” value is “unresponsive”.
